Measured values as given in patent publication EP3046573B1, “AMYLIN ANALOGUES” (Zealand Pharma A/S, priority 2013, dated 2015).
Numbered stars: 1 amine (or outer) side, 2 acyl side, 3 side chain; on linkers, the order of the positions; unused ones are H or OH. Bridge positions count the residues as written; N and C are the ends. Square brackets hold non-standard residues; d marks the D form. Peptide text beside a SMILES is read from it. * marks the point of attachment. C20 diacid = O=C(O)CCCCCCCCCCCCCCCCCCC(=O)*; γGlu = O=C(O)[C@H](CCC(=O)[*:2])N[*:1]; NMeI = CC[C@H](C)[C@H](NC)C(=O)O; NMeA = CN[C@@H](C)C(=O)O; Sar = CNCC(=O)O

Tests used:
[1] = Solubility assessment (turbidity absorbance at 325 nm); assay type: physicochemical; conditions: stock 2 mg/ml diluted 1:1, ambient temperature (typically 25°C), n=1; for Solubility, Acetate buffer pH 4: 100 mM acetate buffer pH 4.0; for Solubility, Acetate buffer pH 5: 100 mM acetate buffer pH 5.0; for Solubility, Histidine buffer pH 6: 100 mM histidine buffer pH 6.0; for Solubility, Histidine buffer pH 7: 100 mM histidine buffer pH 7.0; for Solubility, Phosphate buffer pH 6: 100 mM phosphate buffer pH 6.0; for Solubility, Phosphate buffer pH 7: 100 mM phosphate buffer pH 7.0; for Solubility, Phosphate buffer pH 7.5: 100 mM phosphate buffer pH7.5
Summary of the method: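 Peptide stock (2 mg/ml, water pH 2.5) diluted 1:1 into 100 mM acetate (pH 4.0, 5.0), histidine (pH 6.0, 7.0) or phosphate (pH 6.0–7.5) buffer; absorbance at 325 nm read at about 25°C, n=1. A325 ≤ 0.02 taken as solubility ≥ 1 mg/ml.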

[2] = target: T1, human calcitonin receptor (hCTR2) (Homo sapiens, UniProt P30988); assay: hCTR2 assay: induction of cAMP (AlphaScreen cAMP Assay kit) in COS7 cells expressing hCTR2; assay type: cell-based
T1 construct: expressed in transfected cells
T1 sequence (P30988 25-474): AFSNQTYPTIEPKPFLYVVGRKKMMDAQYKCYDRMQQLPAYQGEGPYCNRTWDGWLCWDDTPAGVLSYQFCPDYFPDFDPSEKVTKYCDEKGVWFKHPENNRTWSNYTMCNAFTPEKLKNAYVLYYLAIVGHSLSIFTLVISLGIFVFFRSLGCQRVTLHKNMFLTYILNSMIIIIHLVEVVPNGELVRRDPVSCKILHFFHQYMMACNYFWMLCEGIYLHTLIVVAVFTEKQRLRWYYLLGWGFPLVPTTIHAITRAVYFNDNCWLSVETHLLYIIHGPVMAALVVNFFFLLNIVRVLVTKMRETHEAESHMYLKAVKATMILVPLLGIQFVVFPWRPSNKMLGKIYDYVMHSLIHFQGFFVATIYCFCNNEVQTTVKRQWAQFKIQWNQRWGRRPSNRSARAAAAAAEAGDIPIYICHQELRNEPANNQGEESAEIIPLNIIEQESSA
Summary of the method: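 Functional agonism is measured as cAMP accumulation in a COS7 line stably transfected with hCTR2, lacking endogenous RAMPs. Peptides act for 15 min at 37° C with IBMX present, and curves are fitted with a 4-parameter logistic model.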

[3] = target: T2, human amylin receptor 3 (hAMYR3) consisting of hCTR2 co-expressed with human Receptor Activity Modifying Protein 3 (hRAMP3) (Homo sapiens, UniProt O60896+P30988); assay: hAMYR3 assay: induction of cAMP (AlphaScreen cAMP Assay kit) in COS7 cells expressing hAMYR3; assay type: cell-based
T2 construct: expressed in transfected cells
T2 sequence (P30988 25-474): T1 sequence (P30988 25-474)
T2 sequence (O60896 24-148 partner): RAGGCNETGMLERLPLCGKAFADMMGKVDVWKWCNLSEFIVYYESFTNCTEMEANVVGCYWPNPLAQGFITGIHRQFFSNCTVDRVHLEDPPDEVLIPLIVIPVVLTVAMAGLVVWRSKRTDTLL
Summary of the method: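 Stable COS7 clone co-expressing hCTR2 and hRAMP3, stimulated 15 min at 37° C with increasing peptide in Tyrode buffer pH 7.4 with 100 µM IBMX and 0.1% casein. cAMP measured by AlphaScreen after lysis; EC50 and % efficacy versus pramlintide from 4PL fit.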

CC[C@H](C)[C@H](NC(=O)[C@@H](NC(=O)[C@H](CC(N)=O)NC(=O)[C@H](CO)NC(=O)CNC(=O)[C@@H](NC(=O)[C@H](CC(N)=O)NC(=O)[C@@H](NC(=O)[C@H](CO)NC(=O)[C@H](CO)NC(=O)[C@H](CC(C)C)NC(=O)[C@H]([C@@H](C)CC)N(C)C(=O)[C@H](C)NC(=O)CN(C)C(=O)[C@H](Cc1ccccc1)NC(=O)[C@H](CC(N)=O)NC(=O)[C@H](CC(N)=O)NC(=O)[C@H](CO)NC(=O)[C@H](CO)NC(=O)[C@H](CCCNC(=N)N)NC(=O)[C@H](Cc1c[nH]cn1)NC(=O)[C@H](CC(C)C)NC(=O)[C@H](Cc1ccccc1)NC(=O)[C@H](CCC(=O)O)NC(=O)[C@H](C)NC(=O)[C@H](CC(C)C)NC(=O)[C@H](CCCNC(=N)N)NC(=O)[C@H](CCC(N)=O)NC(=O)[C@@H](NC(=O)[C@H](C)NC(=O)[C@@H]1CSSC[C@H](NC(=O)[C@H](CCCNC(=N)N)NC(=O)CC[C@H](NC(=O)CCCCCCCCCCCCCCCCCCC(=O)O)C(=O)O)C(=O)N[C@@H](CC(N)=O)C(=O)N[C@@H]([C@@H](C)O)C(=O)N[C@@H](C)C(=O)N[C@@H]([C@@H](C)O)C(=O)N1)[C@@H](C)O)[C@@H](C)O)C(C)C)[C@@H](C)O)C(N)=O [Compound 99, [19CD]-isoGlu-RC()NTATC()ATQRLAEFLHRSSNNF-Gly(Me)-A-Ile(Me)-LSSTNVGSNTI-NH2] ({C20 diacid-γGlu}-RCNTATCATQRLAEFLHRSSNNF[Sar]A[NMeI]LSSTNVGSNTI-NH2; disulfide 2-7)
Solubility, Acetate buffer pH 4 [1]: SS (SS indicates solubility ≥ 1mg/ml) | Solubility, Acetate buffer pH 5 [1]: SS (SS indicates solubility ≥ 1mg/ml) | Solubility, Histidine buffer pH 6 [1]: SS (SS indicates solubility ≥ 1mg/ml) | Solubility, Histidine buffer pH 7 [1]: SS (SS indicates solubility ≥ 1mg/ml) | Solubility, Phosphate buffer pH 6 [1]: II (II indicates solubility ≤ 1 mg/ml) | Solubility, Phosphate buffer pH 7 [1]: SS (SS indicates solubility ≥ 1mg/ml) | Solubility, Phosphate buffer pH 7.5 [1]: SS (SS indicates solubility ≥ 1mg/ml) | EC50 [2]: 270 pM | EC50 [3]: 2200 pM

CC[C@H](C)[C@@H](C(=O)N[C@@H](CC(C)C)C(=O)N[C@@H](CO)C(=O)N[C@@H](CO)C(=O)N[C@H](C(=O)N[C@@H](CC(N)=O)C(=O)N[C@H](C(=O)NCC(=O)N[C@@H](CO)C(=O)N[C@@H](CC(N)=O)C(=O)N[C@H](C(=O)N[C@@H](CC(C)C)C(N)=O)[C@@H](C)O)C(C)C)[C@@H](C)O)N(C)C(=O)[C@H](C)NC(=O)CN(C)C(=O)[C@H](Cc1ccccc1)NC(=O)[C@H](CC(N)=O)NC(=O)[C@H](CC(N)=O)NC(=O)[C@H](CO)NC(=O)[C@H](CO)NC(=O)[C@H](CCCNC(=N)N)NC(=O)[C@H](Cc1c[nH]cn1)NC(=O)[C@H](CC(C)C)NC(=O)[C@H](Cc1ccccc1)NC(=O)[C@H](CCC(=O)O)NC(=O)[C@H](C)NC(=O)[C@H](CC(C)C)NC(=O)[C@H](CCCNC(=N)N)NC(=O)[C@H](CCC(N)=O)NC(=O)[C@@H](NC(=O)[C@H](C)NC(=O)[C@@H]1CSSC[C@H](NC(=O)[C@H](CCCNC(=N)N)NC(=O)CC[C@H](NC(=O)CCCCCCCCCCCCCCCCCCC(=O)O)C(=O)O)C(=O)N[C@@H](CC(N)=O)C(=O)N[C@@H]([C@@H](C)O)C(=O)N[C@@H](C)C(=O)N[C@@H]([C@@H](C)O)C(=O)N1)[C@@H](C)O [Compound 100, [19CD]-isoGlu-RC()NTATC()ATQRLAEFLHRSSNNF-Gly(Me)-A-Ile(Me)-LSSTNVGSNTL-NH2] ({C20 diacid-γGlu}-RCNTATCATQRLAEFLHRSSNNF[Sar]A[NMeI]LSSTNVGSNTL-NH2; disulfide 2-7)
Solubility, Acetate buffer pH 4 [1]: SS (SS indicates solubility ≥ 1mg/ml) | Solubility, Acetate buffer pH 5 [1]: SS (SS indicates solubility ≥ 1mg/ml) | Solubility, Histidine buffer pH 6 [1]: SS (SS indicates solubility ≥ 1mg/ml) | Solubility, Histidine buffer pH 7 [1]: SS (SS indicates solubility ≥ 1mg/ml) | Solubility, Phosphate buffer pH 6 [1]: II (II indicates solubility ≤ 1 mg/ml) | Solubility, Phosphate buffer pH 7 [1]: SS (SS indicates solubility ≥ 1mg/ml) | Solubility, Phosphate buffer pH 7.5 [1]: SS (SS indicates solubility ≥ 1mg/ml) | EC50 [2]: 370 pM | EC50 [3]: 6300 pM

CC[C@H](C)[C@@H](C(=O)N[C@@H](CC(C)C)C(=O)N[C@@H](CO)C(=O)N[C@@H](CO)C(=O)N[C@H](C(=O)N[C@@H](CC(N)=O)C(=O)N[C@H](C(=O)NCC(=O)N[C@@H](CO)C(=O)N[C@@H](CC(N)=O)C(=O)N[C@H](C(=O)N(C)CC(N)=O)[C@@H](C)O)C(C)C)[C@@H](C)O)N(C)C(=O)[C@H](C)NC(=O)CN(C)C(=O)[C@H](Cc1ccccc1)NC(=O)[C@H](CC(N)=O)NC(=O)[C@H](CC(N)=O)NC(=O)[C@H](CO)NC(=O)[C@H](CO)NC(=O)[C@H](CCCNC(=N)N)NC(=O)[C@H](Cc1c[nH]cn1)NC(=O)[C@H](CC(C)C)NC(=O)[C@H](Cc1ccccc1)NC(=O)[C@H](CCC(=O)O)NC(=O)[C@H](C)NC(=O)[C@H](CC(C)C)NC(=O)[C@H](CCCNC(=N)N)NC(=O)[C@H](CCC(N)=O)NC(=O)[C@@H](NC(=O)[C@H](C)NC(=O)[C@@H]1CSSC[C@H](NC(=O)[C@H](CCCNC(=N)N)NC(=O)CC[C@H](NC(=O)CCCCCCCCCCCCCCCCCCC(=O)O)C(=O)O)C(=O)N[C@@H](CC(N)=O)C(=O)N[C@@H]([C@@H](C)O)C(=O)N[C@@H](C)C(=O)N[C@@H]([C@@H](C)O)C(=O)N1)[C@@H](C)O [Compound 101, [19CD]-isoGlu-RC()NTATC()ATQRLAEFLHRSSNNF-Gly(Me)-A-Ile(Me)-LSSTNVGSNT-Gly(Me)-NH2] ({C20 diacid-γGlu}-RCNTATCATQRLAEFLHRSSNNF[Sar]A[NMeI]LSSTNVGSNT[Sar]-NH2; disulfide 2-7)
Solubility, Acetate buffer pH 4 [1]: SS (SS indicates solubility ≥ 1mg/ml) | Solubility, Acetate buffer pH 5 [1]: SS (SS indicates solubility ≥ 1mg/ml) | Solubility, Histidine buffer pH 6 [1]: SS (SS indicates solubility ≥ 1mg/ml) | Solubility, Histidine buffer pH 7 [1]: SS (SS indicates solubility ≥ 1mg/ml) | Solubility, Phosphate buffer pH 6 [1]: II (II indicates solubility ≤ 1 mg/ml) | Solubility, Phosphate buffer pH 7 [1]: SS (SS indicates solubility ≥ 1mg/ml) | Solubility, Phosphate buffer pH 7.5 [1]: SS (SS indicates solubility ≥ 1mg/ml) | EC50 [2]: 600 pM | EC50 [3]: 2700 pM

CC[C@H](C)[C@@H](C(=O)N[C@@H](CC(C)C)C(=O)N[C@@H](CO)C(=O)N[C@@H](CO)C(=O)N[C@H](C(=O)N[C@@H](CC(N)=O)C(=O)N[C@H](C(=O)NCC(=O)N[C@@H](CO)C(=O)N[C@@H](CC(N)=O)C(=O)N[C@H](C(=O)N(C)[C@@H](C)C(N)=O)[C@@H](C)O)C(C)C)[C@@H](C)O)N(C)C(=O)[C@H](C)NC(=O)CN(C)C(=O)[C@H](Cc1ccccc1)NC(=O)[C@H](CC(N)=O)NC(=O)[C@H](CC(N)=O)NC(=O)[C@H](CO)NC(=O)[C@H](CO)NC(=O)[C@H](CCCNC(=N)N)NC(=O)[C@H](Cc1c[nH]cn1)NC(=O)[C@H](CC(C)C)NC(=O)[C@H](Cc1ccccc1)NC(=O)[C@H](CCC(=O)O)NC(=O)[C@H](C)NC(=O)[C@H](CC(C)C)NC(=O)[C@H](CCCNC(=N)N)NC(=O)[C@H](CCC(N)=O)NC(=O)[C@@H](NC(=O)[C@H](C)NC(=O)[C@@H]1CSSC[C@H](NC(=O)[C@H](CCCNC(=N)N)NC(=O)CC[C@H](NC(=O)CCCCCCCCCCCCCCCCCCC(=O)O)C(=O)O)C(=O)N[C@@H](CC(N)=O)C(=O)N[C@@H]([C@@H](C)O)C(=O)N[C@@H](C)C(=O)N[C@@H]([C@@H](C)O)C(=O)N1)[C@@H](C)O [Compound 102, [19CD]-isoGlu-RC()NTATC()ATQRLAEFLHRSSNNF-Gly(Me)-A-Ile(Me)-LSSTNVGSNT-Ala(Me)-NH2] ({C20 diacid-γGlu}-RCNTATCATQRLAEFLHRSSNNF[Sar]A[NMeI]LSSTNVGSNT[NMeA]-NH2; disulfide 2-7)
Solubility, Acetate buffer pH 4 [1]: SS (SS indicates solubility ≥ 1mg/ml) | Solubility, Acetate buffer pH 5 [1]: II (II indicates solubility ≤ 1 mg/ml) | Solubility, Histidine buffer pH 6 [1]: SS (SS indicates solubility ≥ 1mg/ml) | Solubility, Histidine buffer pH 7 [1]: SS (SS indicates solubility ≥ 1mg/ml) | Solubility, Phosphate buffer pH 6 [1]: II (II indicates solubility ≤ 1 mg/ml) | Solubility, Phosphate buffer pH 7 [1]: SS (SS indicates solubility ≥ 1mg/ml) | Solubility, Phosphate buffer pH 7.5 [1]: SS (SS indicates solubility ≥ 1mg/ml) | EC50 [2]: 420 pM | EC50 [3]: 1000 pM
